Assay results reported in patent publication US12448655B2, “Antibiotic susceptibility of microorganisms and related methods and systems” (CALIFORNIA INSTITUTE OF TECHNOLOGY, priority 2017, dated 2025).

Assays:
Neisseria gonorrhoeae [1] = test: AST by inaccessible DNA, 1 incubation step with Triton X-100 and DNaseI, qPCR (Example 1); format: cell-based
Procedure: An antibiotic susceptibility test can be performed with methods herein described comprising 15-minute co-incubation of the sample with antibiotics and an enhancing treatment followed by cell lysis, and detection of differences in amounts of detected DNA between the antibiotic-susceptible and a corresponding control but not in antibiotic-resistant NG isolates with respect to a corresponding control.
For each isolate, two incubation tubes were prepared in 2 mL purple cap tubes (VWR Cat #89004-298), following the indication in table x below, titled “Antibiotic Exposure per 500 μL”. Add Triton X (enhancer), DNaseI (Cat: M0303L) (degrader), NaHCO3 (conditioner).
The antibiotic incubation/exposure was performed on a heat-shake block fit to 2 mL purple cap tubes (VWR Cat #89004-298). The particular shake-block was measured with a thermocouple to ensure the temperature inside the tubes with 500 μL of media is 37° C. (settings 38° C. and 1000 rpm shaking), qPCR was used for NA amplification
Extraction was performed following “DEB Extraction” description in the general methods using Eppendorf tubes. Vortex samples briefly (2 seconds) and centrifuge before transferring 10 μL of the sample to 90 μL of the extraction buffer. • 9. Optionally, continue incubation of the treated and untreated samples for a control of the antibiotic efficacy over >15 minute exposures
The “qPCR” description in the general methods was followed. All DEB-extracted DNA were quantified using a primer mix=(10 µM forward and reverse) targeting N. gonorrhoeae porA gene. Samples were run in qPCR triplicates (10 μL reactions) at an annealing temperature 62° C. The primers target the porA gene. • 11. Data analysis is performed on the raw cq measurements obtained from the qPCR instrument

Neisseria gonorrhoeae [2] = test: Minimum inhibitory concentrations (MICs) of Neisseria gonorrhoeae clinical isolates; format: cell-based
Procedure: Isolates and agar-dilution MIC testing. Isolates were provided by the University of Washington Neisseria Reference Laboratory and the Centers for Disease Control (CDC) Antibiotic Resistance Isolate Bank Neisseria gonorrhoeae panel (SINuca-Table). MICs of the CDC AR Isolate Bank are reported by the CDC [10], and MIC of all other isolates were determined by agar dilution according to the Clinical and Laboratory Standards Institute (CLSI) guidelines.

Neisseria gonorrhoeae [3] = test: Two-step aAST with surfactant (CHAPS) only in the secondary exposure, qPCR CT ratio (Example 11); format: cell-based; settings: 1 μg/mL ceftriaxone 15 min, then 10 mM CHAPS with DNaseI 5 min
Procedure: This example was performed using a two-step exposure in which the first step is exposure to a beta-lactam antibiotic and the second step is a 1:1 dilution into DNaseI treatment in the presence of a surfactant.
The inclusion of the surfactant enhances the accessible nucleic acids made available by short (15 minute) b-lactam exposure by adding a second incubation step with a surfactant. Differences in DNA accessibility between the unexposed and exposed tubes are enhanced. DNaseI is used to degrade the DNA made accessible by beta-lactam treatment and the surfactant.
FIG. 23 describes the layout of this experiment. An NG isolate is incubated with a beta-lactam antibiotic for 15 minutes, followed by a DNaseI digestion step in the presence of surfactant. At each time point, DNaseI will be added to degrade the accessible DNA, then the DNaseI will be inactivated simultaneously with the lysis of the remaining cells. The quantified nucleic acids represent those inaccessible from the DNaseI throughout the exposure protocol. • 1. Provide incubation media containing enhancer, accessibility, with and without an antibiotic for each isolate
The samples were mixed before transferring 25 μL of the sample to the prepared secondary incubation (enhancer) tubes. […]

Ng isolates = test: nuc-aAST time-course without enhancing step (Example 32); format: cell-based, Neisseria gonorrhoeae; settings: two PEN-S and two PEN-R Ng isolates; DNase I present; no enhancing step
Procedure: nuc-aAST time-course without enhancing step. Working cultures of Ng isolates were prepared as described in “Ng culture preparation.” Incubation at 37° C. was performed in 100 μL reaction volumes in PCR tube strips on a BioRad C1000 Thermal Cycler. Treated samples consisted of 77.5 μL MHB, 2.5 μL NaHCO3 (200 mM), 5 μL DNase I (2 U/μL), 5 μL PEN (20 μg/mL), and 10 μL working Ng isolate culture. PEN was replaced with NF—H2O in control samples. A 10 μL aliquot of each sample was extracted at 15, 30, 45, 60, 90, and 120 min and diluted 10× in QuickExtract DNA Extraction Solution (Lucigen, Middleton, WI, USA), then heated for 6 min at 65° C. followed by 4 min at 98° C. on a BioRad C1000 Thermal Cycler. All sample handling following antibiotic exposure was performed using a multichannel pipette; qPCR and calculation of % accessibility were performed as described above.
β-lactams should primarily affect peptidoglycan, and should not have a major impact on the outer membrane, which serves as a structural element in Gram-negative bacteria. Therefore, it is expected the primary mechanism behind any increase in accessibility to be cell lysis as a result of exposure to β-lactams, leading to release of genomic DNA to the extracellular environment containing DNase. […]

Compound	Antibiotic MICs (Neisseria gonorrhoeae [2]; isolate ng_1) [µg/mL]	Antibiotic MICs (Neisseria gonorrhoeae [2]; isolate ng_2) [µg/mL]	Antibiotic MICs (Neisseria gonorrhoeae [2]; isolate ng_3) [µg/mL]	Antibiotic MICs (Neisseria gonorrhoeae [2]; isolate ng_4) [µg/mL]	Antibiotic MICs (Neisseria gonorrhoeae [2]; isolate ng_5) [µg/mL]	Antibiotic MICs (Neisseria gonorrhoeae [2]; isolate ng_6) [µg/mL]	Antibiotic MICs (Neisseria gonorrhoeae [2]; isolate ng_12) [µg/mL]	Antibiotic MICs (Neisseria gonorrhoeae [2]; isolate ng_15) [µg/mL]	Antibiotic MICs (Neisseria gonorrhoeae [2]; isolate ng_16) [µg/mL]	Antibiotic MICs (Neisseria gonorrhoeae [2]; isolate ng_17) [µg/mL]	Antibiotic MICs (Neisseria gonorrhoeae [2]; isolate ng_18) [µg/mL]	Antibiotic MICs (Neisseria gonorrhoeae [2]; isolate ng_19) [µg/mL]	Antibiotic MICs (Neisseria gonorrhoeae [2]; isolate ng_20) [µg/mL]	Antibiotic MICs (Neisseria gonorrhoeae [2]; isolate ng_30) [µg/mL]	Antibiotic MICs (Neisseria gonorrhoeae [2]; isolate ng_41) [µg/mL]	Antibiotic MICs (Neisseria gonorrhoeae [2]; isolate ng_44) [µg/mL]	other results
CO/N=C(\C(=O)N[C@@H]1C(=O)N2C(C(=O)O)=C(CSc3nc(=O)c(=O)[nH]n3C)CS[C@H]12)c1csc(N)n1 [CRO, ceftriaxone]	≤0.008	<0.008	≤0.008	0.030	0.015	≤0.008	0.015	≤0.008	≤0.008	≤0.008	0.030	0.015	≤0.008	0.500	0.125	≤0.008	Cqs of treated sample compared with control (no ABX) (Neisseria gonorrhoeae [1]; ceftriaxone-resistant isolate ng_30, 15-minute incubation with 1% TritonX-100 and DNaseI): not distinguishable from the control; difference in relative concentrations (inaccessible DNA) control vs treated (Neisseria gonorrhoeae [1]; ceftriaxone-susceptible isolate ng_3, 15-minute incubation with 1% TritonX-100 and DNaseI): 11 fold; Cq difference between control and antibiotic-treated sample (FIG. 3 bars (a) and (b)) (Neisseria gonorrhoeae [1]; ceftriaxone-susceptible isolate ng_3, 15-minute incubation with 1% TritonX-100 and DNaseI in MH media): 3.5 Cq; Antibiotic MICs (Neisseria gonorrhoeae [2]; isolate ng_15, listed as ceftriaxone): < 0.008 µg/mL; Antibiotic MICs (Neisseria gonorrhoeae [2]; isolate ng_17, listed as ceftriaxone): ≤ 0.008 µg/mL; Antibiotic MICs (Neisseria gonorrhoeae [2]; isolate ng_30, listed as ceftriaxone): 0.05 µg/mL; CT ratio (control/treated, qPCR) (Neisseria gonorrhoeae [3]; ceftriaxone-susceptible isolates ng_5, ng_17, ng_19): > 1.5; CT ratio (control/treated, qPCR) (Neisseria gonorrhoeae [3]; reduced-susceptibility isolate ng_30): < 1.5
penicillin	0.250	0.250	0.250	0.500	1.000	0.250	0.500	0.015	0.015	0.060	2.000	2.000	0.060	1.000	2.000	8.000	exposure time at which percentage accessibility differed significantly between susceptible and resistant isolates (Ng isolates): 90 min
